{"source": "paper PMC3744102", "about": "(2010)", "origin": "cited, not measured here", "note": "Several values for one entry are separate records, joined by “and”; a condition that tells them apart may be missing. Equal entries are not always repeated. Entries after “also recorded” stand apart in the source; their conditions may differ."}
{"substance": "Y-G-G-F-L-R-R-I-R-P-K-L-K-W-D-N-Q", "values": [{"measurement": "cleaved bond", "setting": "rhesus monkey blood", "value": "Arg6-Arg7, major; also recorded: Tyr1-G2, major"}, {"measurement": "fragment found", "setting": "rhesus monkey blood", "value": "2–6 and 8–17 and 9–17 and 11–17 and 3–17 and 4–17"}, {"measurement": "cleaved bond", "setting": "human blood", "value": "Arg6-Arg7, major; also recorded: Tyr1-G2, major"}, {"measurement": "fragment found", "setting": "human blood", "value": "3–17 and 4–17 and 2–6 and 8–17 and 9–17 and 11–17"}]}
